# Active and inactive are the calls of the source. Cut-off read from the data, not from the text of the source, for most assays here: actives have a measured Kd and inactives only a lower limit.
# Tests used:
# [1] = biological target: Mitogen-activated protein kinase kinase kinase kinase 1 (Homo sapiens, UniProt Q92918)
# [2] = biological target: cAMP-dependent protein kinase catalytic subunit gamma (Homo sapiens, UniProt P22612)
# [3] = biological target: T1, Mitogen-activated protein kinase kinase kinase 5 (Homo sapiens, UniProt Q99683)
# T1 sequence (Q99683 whole entry): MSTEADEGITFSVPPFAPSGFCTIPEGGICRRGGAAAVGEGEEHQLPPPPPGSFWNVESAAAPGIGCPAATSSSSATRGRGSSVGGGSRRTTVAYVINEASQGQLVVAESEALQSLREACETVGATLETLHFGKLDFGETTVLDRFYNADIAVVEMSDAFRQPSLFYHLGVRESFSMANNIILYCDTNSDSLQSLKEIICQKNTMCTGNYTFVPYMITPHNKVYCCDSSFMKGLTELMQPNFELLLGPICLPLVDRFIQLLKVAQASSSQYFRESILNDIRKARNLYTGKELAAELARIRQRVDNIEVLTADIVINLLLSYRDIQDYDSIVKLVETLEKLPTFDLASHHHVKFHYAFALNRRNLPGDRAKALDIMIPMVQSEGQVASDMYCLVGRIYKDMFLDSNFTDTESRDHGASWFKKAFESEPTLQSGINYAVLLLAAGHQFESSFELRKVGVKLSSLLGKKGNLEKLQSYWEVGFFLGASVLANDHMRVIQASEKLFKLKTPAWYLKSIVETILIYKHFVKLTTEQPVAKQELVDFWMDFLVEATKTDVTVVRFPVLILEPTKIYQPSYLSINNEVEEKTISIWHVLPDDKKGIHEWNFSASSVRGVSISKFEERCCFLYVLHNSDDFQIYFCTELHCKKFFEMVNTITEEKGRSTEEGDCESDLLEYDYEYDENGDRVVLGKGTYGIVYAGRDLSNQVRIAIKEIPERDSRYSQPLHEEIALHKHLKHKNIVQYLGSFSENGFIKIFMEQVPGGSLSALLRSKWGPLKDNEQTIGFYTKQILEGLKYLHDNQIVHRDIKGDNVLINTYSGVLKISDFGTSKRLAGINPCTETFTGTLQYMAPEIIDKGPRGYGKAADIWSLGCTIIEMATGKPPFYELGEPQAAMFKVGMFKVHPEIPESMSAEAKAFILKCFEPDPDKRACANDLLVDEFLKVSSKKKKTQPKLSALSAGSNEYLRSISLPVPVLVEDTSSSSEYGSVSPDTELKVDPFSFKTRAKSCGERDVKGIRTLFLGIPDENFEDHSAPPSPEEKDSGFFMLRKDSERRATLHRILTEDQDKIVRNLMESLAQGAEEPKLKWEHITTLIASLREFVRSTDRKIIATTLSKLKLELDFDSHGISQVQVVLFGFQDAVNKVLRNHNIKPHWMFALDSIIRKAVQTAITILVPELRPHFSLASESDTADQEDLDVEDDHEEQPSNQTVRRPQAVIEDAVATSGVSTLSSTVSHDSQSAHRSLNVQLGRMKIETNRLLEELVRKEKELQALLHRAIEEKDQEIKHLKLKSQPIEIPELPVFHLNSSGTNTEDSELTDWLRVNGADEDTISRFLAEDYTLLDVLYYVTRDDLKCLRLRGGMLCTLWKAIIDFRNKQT
# [4] = biological target: T2, Breakpoint cluster region protein (Homo sapiens, UniProt P11274)
# T2 sequence (P11274 whole entry): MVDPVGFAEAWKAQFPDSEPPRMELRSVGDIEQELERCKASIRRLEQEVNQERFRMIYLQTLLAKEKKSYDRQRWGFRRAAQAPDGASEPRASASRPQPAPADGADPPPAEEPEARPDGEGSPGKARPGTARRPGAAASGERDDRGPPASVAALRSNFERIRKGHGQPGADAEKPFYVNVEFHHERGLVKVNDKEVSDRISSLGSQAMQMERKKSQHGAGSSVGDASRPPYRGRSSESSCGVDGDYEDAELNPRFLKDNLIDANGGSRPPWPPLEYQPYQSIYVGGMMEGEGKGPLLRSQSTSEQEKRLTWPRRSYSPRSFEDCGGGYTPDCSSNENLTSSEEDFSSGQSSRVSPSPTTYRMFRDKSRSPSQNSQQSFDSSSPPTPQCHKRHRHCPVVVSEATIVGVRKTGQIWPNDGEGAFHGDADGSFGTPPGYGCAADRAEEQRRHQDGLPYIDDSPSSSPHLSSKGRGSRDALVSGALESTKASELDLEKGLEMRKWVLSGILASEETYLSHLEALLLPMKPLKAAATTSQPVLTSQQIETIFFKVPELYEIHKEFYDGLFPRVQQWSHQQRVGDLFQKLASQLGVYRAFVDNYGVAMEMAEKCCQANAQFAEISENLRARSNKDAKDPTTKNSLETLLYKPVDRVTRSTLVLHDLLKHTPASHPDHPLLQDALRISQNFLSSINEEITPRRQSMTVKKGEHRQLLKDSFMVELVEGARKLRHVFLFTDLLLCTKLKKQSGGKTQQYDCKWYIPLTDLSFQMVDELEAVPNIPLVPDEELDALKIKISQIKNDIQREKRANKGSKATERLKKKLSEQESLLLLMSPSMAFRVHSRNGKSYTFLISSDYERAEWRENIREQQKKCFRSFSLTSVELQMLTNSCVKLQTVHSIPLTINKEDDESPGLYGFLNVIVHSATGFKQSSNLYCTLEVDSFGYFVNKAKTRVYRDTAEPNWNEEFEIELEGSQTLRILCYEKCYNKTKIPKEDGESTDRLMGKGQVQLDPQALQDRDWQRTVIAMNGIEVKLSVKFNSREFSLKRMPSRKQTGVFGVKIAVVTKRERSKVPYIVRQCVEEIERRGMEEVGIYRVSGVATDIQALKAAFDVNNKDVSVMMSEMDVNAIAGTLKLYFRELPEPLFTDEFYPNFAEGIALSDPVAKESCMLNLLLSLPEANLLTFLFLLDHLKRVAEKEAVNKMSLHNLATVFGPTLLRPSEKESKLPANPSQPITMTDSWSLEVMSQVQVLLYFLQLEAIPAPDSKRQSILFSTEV
# Aurora kinase B = Aurora kinase B (Homo sapiens, UniProt Q96GD4)
# Note: in the data inactive means no Kd found up to 30 µM.
# Chain of Mitogen-activated protein kinase kinase kinase kinase 1 (Q92918 whole entry): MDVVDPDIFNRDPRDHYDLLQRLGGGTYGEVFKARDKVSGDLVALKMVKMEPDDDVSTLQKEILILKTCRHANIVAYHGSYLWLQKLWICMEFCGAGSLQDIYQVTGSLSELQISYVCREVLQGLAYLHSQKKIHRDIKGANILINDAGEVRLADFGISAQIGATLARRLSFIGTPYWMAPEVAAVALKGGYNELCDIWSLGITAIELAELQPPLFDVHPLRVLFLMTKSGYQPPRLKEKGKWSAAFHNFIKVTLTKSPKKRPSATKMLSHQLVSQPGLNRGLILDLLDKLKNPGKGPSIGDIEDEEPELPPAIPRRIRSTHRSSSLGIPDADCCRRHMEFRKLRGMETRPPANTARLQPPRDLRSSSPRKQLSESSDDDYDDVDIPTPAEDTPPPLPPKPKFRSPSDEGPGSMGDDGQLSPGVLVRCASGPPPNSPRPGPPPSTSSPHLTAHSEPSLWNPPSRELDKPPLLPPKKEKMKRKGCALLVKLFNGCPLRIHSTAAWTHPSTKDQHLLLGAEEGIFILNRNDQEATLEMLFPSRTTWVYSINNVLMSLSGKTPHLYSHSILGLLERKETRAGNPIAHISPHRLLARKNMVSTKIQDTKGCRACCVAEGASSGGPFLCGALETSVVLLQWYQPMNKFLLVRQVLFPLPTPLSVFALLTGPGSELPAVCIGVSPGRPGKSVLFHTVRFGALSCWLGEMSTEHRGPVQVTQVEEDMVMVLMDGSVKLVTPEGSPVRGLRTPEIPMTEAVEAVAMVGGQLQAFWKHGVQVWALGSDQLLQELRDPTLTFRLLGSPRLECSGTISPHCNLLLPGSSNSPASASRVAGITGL
# Chain of Aurora kinase B (Q96GD4 whole entry): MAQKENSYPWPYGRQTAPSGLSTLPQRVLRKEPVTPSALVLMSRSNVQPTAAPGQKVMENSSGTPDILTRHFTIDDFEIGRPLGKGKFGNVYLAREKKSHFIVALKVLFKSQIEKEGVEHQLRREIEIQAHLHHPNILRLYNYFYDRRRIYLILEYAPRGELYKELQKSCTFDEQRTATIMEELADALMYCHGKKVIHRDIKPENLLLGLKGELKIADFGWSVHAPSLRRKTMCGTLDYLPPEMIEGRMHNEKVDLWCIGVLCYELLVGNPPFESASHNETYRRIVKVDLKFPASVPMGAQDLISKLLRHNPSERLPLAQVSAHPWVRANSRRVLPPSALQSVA
# Chain of cAMP-dependent protein kinase catalytic subunit gamma (P22612 whole entry): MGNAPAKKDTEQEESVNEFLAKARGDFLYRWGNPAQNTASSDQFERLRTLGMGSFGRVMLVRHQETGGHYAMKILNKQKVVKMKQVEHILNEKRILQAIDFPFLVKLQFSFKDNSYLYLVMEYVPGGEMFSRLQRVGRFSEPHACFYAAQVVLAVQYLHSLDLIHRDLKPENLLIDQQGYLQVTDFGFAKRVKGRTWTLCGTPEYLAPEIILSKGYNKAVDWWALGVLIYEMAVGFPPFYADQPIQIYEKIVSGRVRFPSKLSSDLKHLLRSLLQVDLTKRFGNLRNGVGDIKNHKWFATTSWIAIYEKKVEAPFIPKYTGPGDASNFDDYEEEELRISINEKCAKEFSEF
Structure (SMILES),Kd [1],Kd [2],Kd [3],Kd [4],Kd (Aurora kinase B)
CNC(=O)c1ccc(-c2cnc3ncc(Cc4ccc5ncccc5c4)n3n2)cc1F [CAPMATINIB],> 30 µM (inactive),> 30 µM (inactive),> 30 µM (inactive),> 30 µM (inactive),> 30 µM (inactive)
CN1CCC(COc2cnc(-c3cccc(Cn4nc(-c5cccc(C#N)c5)ccc4=O)c3)nc2)CC1 [TEPOTINIB],> 30 µM (inactive),> 30 µM (inactive),> 30 µM (inactive),> 30 µM (inactive),> 30 µM (inactive)
Cc1cc2c(F)c(Oc3ncnn4cc(OC[C@@H](C)OC(=O)[C@H](C)N)c(C)c34)ccc2[nH]1 [BRIVANIB ALANINATE],> 30 µM (inactive),> 30 µM (inactive),> 30 µM (inactive),> 30 µM (inactive),> 30 µM (inactive)
CN1N=C(N)c2cn([C@@H]3O[C@H](COP(=O)(O)O)[C@@H](O)[C@H]3O)c3ncnc1c23 [TRICIRIBINE PHOSPHATE],> 30 µM (inactive),> 30 µM (inactive),> 30 µM (inactive),> 30 µM (inactive),> 30 µM (inactive)
Cc1cc([C@@H](C)Nc2ccccc2C(=O)O)c2nc(N3CCOCC3)cc(=O)n2c1 [AZD-6482],> 30 µM (inactive),> 30 µM (inactive),> 30 µM (inactive),> 30 µM (inactive),> 30 µM (inactive)
COC(=O)[C@@]1(O)C[C@H]2O[C@]1(C)n1c3ccccc3c3c4c(c5c6ccccc6n2c5c31)C(=O)NC4 [K-252A],0.452 µM (active),> 30 µM (inactive),0.182 µM (active),> 30 µM (inactive),0.353 µM (active)
CCS(=O)(=O)N1CC(CC#N)(n2cc(-c3ncnc4[nH]ccc34)cn2)C1 [BARICITINIB],> 30 µM (inactive),> 30 µM (inactive),> 30 µM (inactive),> 30 µM (inactive),> 30 µM (inactive)
Cc1cc(-c2cc(O)ccc2Cl)cc2nnc(Nc3ccc(OCCN4CCCC4)cc3)nc12,> 30 µM (inactive),> 30 µM (inactive),> 30 µM (inactive),0.001 µM (active),> 30 µM (inactive)
Cc1c(F)cc(C(=O)NC2CC2)cc1-c1ccc(C(=O)NCC(C)(C)C)cn1 [LOSMAPIMOD],> 30 µM (inactive),49.3 µM (active),> 30 µM (inactive),> 30 µM (inactive),> 30 µM (inactive)
O=C(c1ccc(F)c(F)c1Nc1ccc(I)cc1F)N1CC(O)([C@@H]2CCCCN2)C1 [COBIMETINIB],> 30 µM (inactive),> 30 µM (inactive),> 30 µM (inactive),> 30 µM (inactive),> 30 µM (inactive)
COc1cc(N2CCC(N3CCN(C)CC3)CC2)ccc1Nc1ncnc(Nc2ccccc2S(=O)(=O)C(C)C)n1 [ASP-3026],> 30 µM (inactive),> 30 µM (inactive),> 30 µM (inactive),> 30 µM (inactive),0.1 µM (active)
O=c1sn(-c2cccc3ccccc23)c(=O)n1Cc1ccccc1 [TIDEGLUSIB],> 30 µM (inactive),> 30 µM (inactive),> 30 µM (inactive),> 30 µM (inactive),> 30 µM (inactive)
C[C@@H](Nc1cc(F)cc(F)c1)c1cc(C(=O)N(C)C)cc2c(=O)cc(N3CCOCC3)oc12 [AZD-8186],> 30 µM (inactive),> 30 µM (inactive),> 30 µM (inactive),> 30 µM (inactive),> 30 µM (inactive)
Cc1ccc(S(=O)(=O)Nc2nc3ccccc3nc2Nc2ccc3nsnc3c2)cc1,> 30 µM (inactive),> 30 µM (inactive),> 30 µM (inactive),> 30 µM (inactive),> 30 µM (inactive)
CN1CCC(CNc2ccc3ncc(-c4cccc(OC(F)(F)F)c4)n3n2)CC1 [SGI-1776],> 30 µM (inactive),> 30 µM (inactive),> 30 µM (inactive),> 30 µM (inactive),> 30 µM (inactive)
